According to US20040229268A1, “Method and kit for identifying antibiotic-resistant microorganisms” (priority 2003, published 2004):

How the values were obtained:
[1] = tested on: mecA gene; Staphylococcus spp. and S. aureus ribosomal nucleic acids; test: HPA probe panel on clinical and ATCC isolates (Examples 8-9); type: binding
Description: Oxacillin MIC results were provided by an outside laboratory. The GP Probe results were determined as described in Example 8.

[2] = tested on: mecA gene; Staphylococcus ribosomal nucleic acids; test: HPA after thermal lysis, base hydrolysis and neutralization (Examples 5-7); type: binding, S. aureus
Description: The cultured S. aureus specimens were lysed by suspending 1 μl loops of bacteria in 150 μl of lysis buffer and then incubating at 105° C. for 15 minutes. Next, 100 μl of 2 N LiOH base solution was added and RNA was hydrolyzed by incubating the mixtures at 60° C. for 15 minutes. Hydrolyzed samples were neutralized by the addition of 100 μl of a neutralizing reagent that included 2 N HCl and 100 mM succinate buffer (pH 5.5 prior to acidification with HCl). Specifically hybridized probe was detected by standard HPA, essentially as described in Example 1.
Specimens (1 μl loops of bacteria) were treated and tested essentially as described in Example 5 with the following differences: incubation for lysis was for 15 minutes and incubation for hybridization was for 45 minutes for samples shown in Tables 7-8, while incubation for lysis was for 10 minutes and incubation for hybridization was for 20 minutes for samples shown in Table 9. All of the base-treated solutions were neutralized by the addition of 250 μl of 0.8 N HCl containing 100 mM succinate.
2′-methoxy analogs of the AE-labeled DNA probes were prepared by standard phosphoramidite synthesis using 2′ methoxy phosphoramidite analogs. Additional linker positions, which are indicated by parentheses in Table 11, for probe 2 were also prepared for testing. Deoxy probes and 2′-methoxy probe analogs were tested essentially as described in Example 5, except as noted below. Probes synthesized using 2′-methoxy nucleotide analogs are particularly identified by the “MeO” designations. Brief summaries of the procedures used to obtain the results are appended to the tables.

[3] = tested on: mecA gene; rRNA (pan-bacterial probe); test: Hybridization Protection Assay (HPA), AE-labeled probes, thermally lysed specimens (Examples 1-2); type: binding, S. aureus
Description: The specimens were lysed by suspending approximately 5×10^8 cells in a lysis buffer (0.1% lithium lauryl sulfate, 1 mM EDTA, 20 mM lithium succinate, pH 5.5) and then incubating in a heat block set at 110° C. for 20 minutes. Thermal lysis of a variety of other specimens was effected under a range of temperature (heat block set at about 95° C. to 110° C.) and time (about 10 to 25 minutes) conditions. The lysed samples were tested for the presence of target sequences complementary to the probes using a Hybridization Protection Assay (HPA) as described by Arnold et al., in Clin. Chem. 35:1588(1989) and U.S. Pat. No. 6,004,745. 50 μl of the heat-treated suspension was incubated with an equal volume of AE-labeled probe in 2× hybridization buffer (1.2 M LiCl, 2% lithium lauryl sulfate, 20 mM EDTA, 20 mM EGTA, 100 mM lithium succinate, pH 5.5) at 60° C. for 30 minutes. The pH of succinate solutions may range from about 4.5 to about 5.5, although it is desirable to use a pH of 4.8 for succinate buffering. 300 μl of a selection reagent (0.6 M borate buffered solution, pH 8.5; note, pH may vary from 8.0 to 9.0) was added, the mixture was heated at 60° C. for 10 minutes to effect differential hydrolysis, and the samples were read in a GEN-PROBE® LEADER® luminometer using sequential 300 μl injections of 0.1% H2O2 and 1 N NaOH solutions (see Arnold et al, supra; GEN-PROBE® Detection Reagent Kit, Cat. No. 1791 may be used).
Procedures similar to those described in Example 1 were conducted using a large number of bacterial samples, except that parallel hybridization reactions employed a pan-bacterial probe which targeted rRNA (Probe Reagent 1, GEN-PROBE® MTC-NI Kit, catalog no. 4573). […] The pan-bacterial probe reagent served as a positive control for lysis of all of the specimens. In this procedure each sample was tested against a panel of the three probes contained in separate hybridization reactions. Aliquots of the samples tested using the pan-bacterial probe reagent were diluted 1:3000 prior to performing luminometry so that results fell within the linear range of the detector. The signals indicated lysis and detection of ribosomal nucleic acids in each of the samples. These values depended on the number of bacterial cells in the specimen, as well as on the extent of cell lysis and the release or accessibility of ribosomal nucleic acids from the cells to be detected by the pan-bacterial probe.

CCGAACTGAGAACAACTTTATGGGATTTGC (chemistry not given here) [Staphylococcus spp. probe with helpers]
HPA Results (# positive for indicated probes) ([1]; ATCC MRSA, 1 isolate, Oxacillin MIC 16 μg/ml): 1 | HPA Results (# positive for indicated probes) ([1]; ATCC MSSA, 1 isolate, Oxacillin MIC 1 μg/ml): 1 | HPA Results (# positive for indicated probes) ([1]; ATCC MSSA, 4 isolates, Oxacillin MIC 0.5 μg/ml): 4 | HPA Results (# positive for indicated probes) ([1]; ATCC MSSA, 6 isolates, Oxacillin MIC ≦0.25 μg/ml): 6 | HPA Results (# positive for indicated probes) ([1]; Clinical MRSA, 8 isolates, Oxacillin MIC 16 μg/ml): 8 | HPA Results (# positive for indicated probes) ([1]; Clinical MRSA, 107 isolates, Oxacillin MIC >16 μg/ml): 107 | HPA Results (# positive for indicated probes) ([1]; Clinical MSSA, 28 isolates, Oxacillin MIC 0.5 μg/ml): 28 | HPA Results (# positive for indicated probes) ([1]; Clinical MSSA, 99 isolates, Oxacillin MIC ≦0.25 μg/ml): 99 | HPA Results (RLU) ([1]; GP21 (S. aureus, mecA(−), MSSA)): 373232 RLU | HPA Results (RLU) ([1]; GP22 (CoNS, mecA(+))): 225141 RLU | HPA Results (RLU) ([1]; GP23 (S. aureus, mecA(−))): 301657 RLU | HPA Results (RLU) ([1]; GP24 (S. aureus, mecA(+))): 306718 RLU | HPA Results (RLU) ([1]; GP25 (S. aureus, mecA(+))): 456426 RLU | HPA Results (RLU) ([1]; GP26 (S. aureus, mecA(−))): 262267 RLU | HPA Results (RLU) ([1]; GP27 (CoNS, mecA(−))): 182304 RLU | HPA Results (RLU) ([1]; GP28 (S. aureus, mecA(−))): 246636 RLU | HPA Results (RLU) ([1]; GP29 (S. aureus, mecA(+))): 388748 RLU | HPA Results (RLU) ([1]; GP30 (S. aureus, mecA(−))): 440128 RLU | HPA Results (RLU) ([1]; GP31 (S. aureus, mecA(+))): 349207 RLU | HPA Results (RLU) ([1]; GP32 (S. aureus, mecA(−))): 432041 RLU | HPA Results (RLU) ([1]; GP33 (S. aureus, mecA(+))): 160830 RLU | HPA Results (RLU) ([1]; GP34 (S. aureus, mecA(−))): 634079 RLU | HPA Results (RLU) ([1]; GP35 (S. aureus, mecA(+))): 543089 RLU | HPA Results (RLU) ([1]; GP36 (S. aureus, mecA(−))): 370898 RLU | HPA Results (RLU) ([1]; GP37 (S. aureus, mecA(+))): 397722 RLU | HPA Results (RLU) ([1]; GP38 (S. aureus, mecA(+))): 387613 RLU | HPA Results (RLU) ([1]; GP39 (S. aureus, mecA(−))): 280358 RLU | HPA Results (RLU) ([1]; GP40 (S. aureus, mecA(−))): 292407 RLU | HPA Results (RLU) ([1]; Neg Control (Hybridization Buffer)): 1775 RLU | HPA Results (RLU) ([1]; Pos Control GP1217 (S. aureus, mecA(+), MRSA)): 170530 RLU | HPA Results (# positive for indicated probes) ([1]; S. epidermidis, 1 isolate, Oxacillin MIC >16 μg/ml): 1 | HPA Results (# positive for indicated probes) ([1]; S. epidermidis, 2 isolates, Oxacillin MIC ≦0.25 μg/ml): 2 | HPA Results (# positive for indicated probes) ([1]; S. hemoliticus, 1 isolate, Oxacillin MIC ≦0.25 μg/ml): 1 | HPA Results (# positive for indicated probes) ([1]; S. hominis, 1 isolate, Oxacillin MIC ≦0.25 μg/ml): 1 | HPA Results (# positive for indicated probes) ([1]; S. hyicus-hyicus, 1 isolate, Oxacillin MIC ≦0.25 μg/ml): 1 | HPA Results (# positive for indicated probes) ([1]; S. intermedius, 1 isolate, Oxacillin MIC ≦0.25 μg/ml): 1 | HPA Results (# positive for indicated probes) ([1]; S. saprophyticus, 1 isolate, Oxacillin MIC 0.5 μg/ml): 1 | HPA Results (# positive for indicated probes) ([1]; S. simulans, 1 isolate, Oxacillin MIC ≦0.25 μg/ml): 1 | HPA Results (# positive for indicated probes) ([1]; S. warneri, 1 isolate, Oxacillin MIC ≦0.25 μg/ml): 1 | RLU ([2]; Table 6, GP18(Neg), MSSA ATCC #12600): 170,434 RLU | RLU ([2]; Table 6, GP1214(Neg), MSSA ATCC #29247): 234,286 RLU | RLU ([2]; Table 6, GP1217(Pos), MRSA ATCC #33591): 225,772 RLU | RLU ([2]; Table 6, GP1218(Pos), MRSA ATCC #43866): 203,488 RLU

CGCTATGATCCCAATCTAACTTCCACATACC (AE label, linker between 21 and 22, chemistry not fully specified; listed as Staphylococcus aureus) [Probe 2]
AE-probe Average RLU ([3]; No Specimen): 3062 RLU | AE-probe Average RLU ([3]; S. aureus specimen #99, mecA PCR Pos): 8072 RLU | AE-probe Average RLU ([3]; S. aureus specimen #100, mecA PCR Neg): 5585 RLU | AE-Probe Signal (RLU) ([3]; Table 2, Negative Control): 1931 RLU | AE-Probe Signal (RLU) ([3]; Table 2, specimen 10, mecA PCR Neg, pan-bacterial diluted 1:3000 prior to luminometry): 3274 RLU | AE-Probe Signal (RLU) ([3]; Table 2, specimen 99, mecA PCR Pos, pan-bacterial diluted 1:3000 prior to luminometry): 13021 RLU | AE-Probe Signal (RLU) ([3]; Table 2, specimen 100, mecA PCR Neg, pan-bacterial diluted 1:3000 prior to luminometry): 6186 RLU | AE-Probe Signal (RLU) ([3]; Table 2, specimen 101, mecA PCR Neg, pan-bacterial diluted 1:3000 prior to luminometry): 6266 RLU | AE-Probe Signal (RLU) ([3]; Table 2, specimen 102, mecA PCR Pos, pan-bacterial diluted 1:3000 prior to luminometry): 13065 RLU | AE-Probe Signal (RLU) ([3]; Table 2, specimen 103, mecA PCR Neg, pan-bacterial diluted 1:3000 prior to luminometry): 2366 RLU | AE-Probe Signal (RLU) ([3]; Table 2, specimen 104, mecA PCR Neg, pan-bacterial diluted 1:3000 prior to luminometry): 2000 RLU | AE-Probe Signal (RLU) ([3]; Table 2, specimen 105, mecA PCR Neg, pan-bacterial diluted 1:3000 prior to luminometry): 2714 RLU | AE-Probe Signal (RLU) ([3]; Table 2, specimen 106, mecA PCR Neg, pan-bacterial diluted 1:3000 prior to luminometry): 2989 RLU | AE-Probe Signal (RLU) ([3]; Table 2, specimen 139, mecA PCR Pos, pan-bacterial diluted 1:3000 prior to luminometry): 9563 RLU | AE-Probe Signal (RLU) ([3]; Table 2, specimen 140, mecA PCR Pos, pan-bacterial diluted 1:3000 prior to luminometry): 4967 RLU | AE-Probe Signal (RLU) ([3]; Table 2, specimen 142, mecA PCR Pos, pan-bacterial diluted 1:3000 prior to luminometry): 10345 RLU | AE-Probe Signal (RLU) ([3]; Table 2, specimen 145, mecA PCR Neg, pan-bacterial diluted 1:3000 prior to luminometry): 2788 RLU | AE-Probe Signal (RLU) ([3]; Table 2, specimen 148, mecA PCR Pos, pan-bacterial diluted 1:3000 prior to luminometry): 15878 RLU | AE-Probe Signal (RLU) ([3]; Table 2, specimen 155, mecA PCR Neg, pan-bacterial diluted 1:3000 prior to luminometry): 2257 RLU | AE-Probe Signal (RLU) ([3]; Table 2, specimen 164, mecA PCR Neg, pan-bacterial diluted 1:3000 prior to luminometry): 3287 RLU | AE-Probe Signal (RLU) ([3]; Table 2, specimen 178, mecA PCR Pos, pan-bacterial diluted 1:3000 prior to luminometry): 12652 RLU | AE-Probe Signal (RLU) ([3]; Table 2, specimen 188, mecA PCR Pos, pan-bacterial diluted 1:3000 prior to luminometry): 20757 RLU | AE-Probe Signal (RLU) ([3]; Table 2, specimen 270, mecA PCR Pos, pan-bacterial diluted 1:3000 prior to luminometry): 14965 RLU | AE-Probe Signal (RLU) ([3]; Table 2, specimen 296, mecA PCR Pos, Lab Pos control, pan-bacterial diluted 1:3000 prior to luminometry): 10585 RLU
